Experimental data: article PMC9631063, “Schisandrin B Attenuates Diabetic Cardiomyopathy by Targeting MyD88 and Inhibiting MyD88‐Dependent Inflammation” (Advanced Science, 2022)

Molecular target: T1, rhMyD88(TIR) (Homo sapiens, UniProt Q99836)
T1 construct: gene MYD88; Results text calls it only rhMyD88
Experiment: isothermal titration calorimetry (Nano-ITC)
Format: binding

T1 sequence (Q99836 159-296 limits assumed): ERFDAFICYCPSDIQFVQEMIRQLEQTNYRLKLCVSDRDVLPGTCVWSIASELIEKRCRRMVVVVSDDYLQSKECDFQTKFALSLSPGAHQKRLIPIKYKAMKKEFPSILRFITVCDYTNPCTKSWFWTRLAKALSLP

Kd: 125 µM
SMILES: COc1cc2c(c(OC)c1OC)-c1c(cc3c(c1OC)OCO3)CC(C)C(C)C2 (stereo not shown) [Schisandrin B]
